Experimental data reported in patent US6830310B2, “Detectable markers in cationic polymeric fixers” (Hewlett-Packard Development Company, L.P., priority 2002, dated 2004).

How the values were obtained:
[1] = Solubility of indicator in polymonoguanadine fixer; details: for Solubility @ 0.1%: 0.1% in 4 wt % polymonoguanadine fixer; for Solubility @ 0.01 %: 0.01% in 4 wt % polymonoguanadine fixer
Description: Fixer solutions were made by mixing a water based fixer containing a polymonoguanadine cationic polymer with an IR or UV absorber indicator.
2) The solubility is based on the solubility of the compound in a 4 wt % polymonoguanadine fixer.

[2] = Color of the fixer solution in the presence of the compound; format: physicochemical
Description: 3) “Color” refers to the color of the fixer solution in the presence of the compound.

Compound: CN(C)c1ccc(C=Cc2ccccn2)cc1 [2-[4-(Dimethylamino)styryl]pyridine]
- Solubility @ 0.1% [1]: No
- Color [2]: Orange

Compound: CCN(CC)CCc1c(C)c2ccc(O)cc2oc1=O.Cl [3-[2-(diethylamino)ethyl]-7-hydroxy-4-methylcoumarin hydrochloride]
- Solubility @ 0.01 % [1]: Yes

Compound: Nc1ccc(C(=O)O)cc1 [4-Aminobenzoic acid (PABA), 4-Aminobenzoic acid]
- Solubility @ 0.01 % [1]: Yes
- Solubility @ 0.1% [1]: Yes
- Color [2]: Clear

Compound: Cc1cc(=O)oc2cc(O)c(O)cc12 [4-Methylesculetin]
- Solubility @ 0.01 % [1]: No
- Solubility @ 0.1% [1]: No
- Color [2]: Clear

Compound: CCN(CC)c1ccc2c(C)cc(=O)oc2c1 [7-Diethylamino-4-methyl coumarin, 7-diethylamino-4-methyl coumarin]
- Solubility @ 0.01 % [1]: Yes
- Solubility @ 0.1% [1]: Yes

Compound: Cc1cc(O)nc2cc(N)ccc12 [Carbostyril 124]
- Solubility @ 0.01 % [1]: Yes
- Solubility @ 0.1% [1]: No
- Color [2]: Clear

Compound: CCN(CC)c1ccc2cc(-c3nc4ccccc4[nH]3)c(=O)oc2c1 [Coumarin 7]
- Solubility @ 0.01 % [1]: No
- Solubility @ 0.1% [1]: No
- Color [2]: Yellow

Compound: CN(C)c1ccc2c(C(F)(F)F)cc(=O)oc2c1 [Coumarin 152]
- Solubility @ 0.01 % [1]: No
- Solubility @ 0.1% [1]: No

Compound: Cc1ccc2nc(-c3ccc(N=NNc4ccc(-c5nc6ccc(C)c(S(=O)(=O)[O-])c6s5)cc4)cc3)sc2c1S(=O)(=O)[O-].[Na+].[Na+] [Direct Yellow 9]
- Solubility @ 0.1% [1]: No
- Color [2]: Yellow

Compound: O=S(=O)([O-])c1cc(Nc2nc(Nc3ccccc3)nc(N(CCO)CCO)n2)ccc1/C=C/c1ccc(Nc2nc(Nc3ccccc3)nc(N(CCO)CCO)n2)cc1S(=O)(=O)[O-].[Na+].[Na+] [FluorescentBrightner28]
- Color [2]: Clear

Compound: CCN1/C(=C/C=C2\CCC(/C=C/c3sc4ccc(Cl)cc4[n+]3CC)=C2N(c2ccccc2)c2ccccc2)Sc2ccc(Cl)cc21.[O-][Cl+3]([O-])([O-])[O-] [IR140]
- Solubility @ 0.01 % [1]: No
- Solubility @ 0.1% [1]: No
- Color [2]: Pale Blue

Compound: CC1(C)C(/C=C/C=C/C=C/C=C2\N(CCCCS(=O)(=O)O)c3ccc4ccccc4c3C2(C)C)=[N+](CCCCS(=O)(=O)[O-])c2ccc3ccccc3c21 [Indocyanine Green]
- Solubility @ 0.01 % [1]: No
- Solubility @ 0.1% [1]: No
- Color [2]: Green

Compound: Cc1cc2nc3[nH]c(=O)[nH]c(=O)c3nc2cc1C [Lumichrome]
- Solubility @ 0.01 % [1]: No
- Solubility @ 0.1% [1]: No
- Color [2]: Clear

Compound: CCOc1ccc2c(ccc(/C=C/c3cccc([N+](=O)[O-])c3)[n+]2C)c1.COS(=O)(=O)[O-] [Pinacryptol Yellow]
- Solubility @ 0.1% [1]: No
- Color [2]: Yellow

Compound: C(=Cc1ccccc1)c1ccccc1 [Stilbene]
- Solubility in the fixer vehicle ([1]; fixer vehicle that is mostly water): not soluble

Compound: Cc1ccc2c(c1)sc(-c1ccc(N(C)C)cc1)[n+]2C.[Cl-] [Thioflavin T]
- Solubility @ 0.01 % [1]: Yes
- Solubility @ 0.1% [1]: No
- Color [2]: Yellow

Compound: CCN=C1C=CC(=C(c2ccc(N(CC)CC)cc2)c2ccc(N(CC)CC)cc2)c2ccccc21.Cl [Victoria Blue BO]
- Solubility @ 0.01 % [1]: Yes
- Color [2]: Blue

Compound: CN1/C(=C/C=C/C=C/C=C/C2=[N+](C)c3ccccc3C2(C)C)C(C)(C)c2ccccc21.[I-] [tricarbocyanine, 1,1′,3,3,3′,3′-Hexamethylindotricarbocyanine iodide]
- Solubility in polymonoguanadine thermal inkjet fixer ([1]; 750 ppm): not soluble
- Solubility (general statement) ([1]; in water / fixer): only limited solubility

Compound: Variamine Blue
- Solubility @ 0.01 % [1]: Yes
- Solubility @ 0.1% [1]: Yes
- Color [2]: Yellow
